Data: patent US5863935A, “Therapeutic heterocyclic compounds” (Zeneca Limited, priority 1990, dated 1999)

Assays:
"5-HT1 -like" receptor = "5-HT1 -like" receptor (Oryctolagus cuniculus, UniProt P49144); assay: Agonist activity, contraction of rabbit lateral saphenous vein rings
cynomolgus monkeys = settings: cynomolgus monkey, in vivo, po, 50 mg/kg
Method: (§1) The hydrochloride salt of the compound of Synthetic Examples 2/3 was administered orally by gavage to Wistar rats as a solution in distilled water at dosages of 25, 100 and 200 mg/kg base and to Beagle dogs at dosages of 0.25, 0.50, 1.0 and 2.0 mg/kg base once a dav for 14 days. In a separate dog study over 30 days, the dosage of the free base was increased from 2 mg/kg on Day 1 to 100 mg/kg on Day 30. The free base was also administered orally to cynomolgus monkeys at a dosage of 50 mg/kg once a day for 15 days.

dog = assay: 30-day escalating-dose toxicity study in dogs; assay type: in vivo; settings: free base, 30 days, dosage increased from 2 mg/kg on Day 1 to 100 mg/kg on Day 30
Method: as §1

Beagle dogs = assay: 14-day oral toxicity in Beagle dogs; assay type: in vivo, dog; settings: hydrochloride salt, oral gavage, Beagle dogs, 0.25, 0.50, 1.0 and 2.0 mg/kg base once a day for 14 days
Method: as §1

"5-HT1 -like" receptor, sequence (P49144 whole entry): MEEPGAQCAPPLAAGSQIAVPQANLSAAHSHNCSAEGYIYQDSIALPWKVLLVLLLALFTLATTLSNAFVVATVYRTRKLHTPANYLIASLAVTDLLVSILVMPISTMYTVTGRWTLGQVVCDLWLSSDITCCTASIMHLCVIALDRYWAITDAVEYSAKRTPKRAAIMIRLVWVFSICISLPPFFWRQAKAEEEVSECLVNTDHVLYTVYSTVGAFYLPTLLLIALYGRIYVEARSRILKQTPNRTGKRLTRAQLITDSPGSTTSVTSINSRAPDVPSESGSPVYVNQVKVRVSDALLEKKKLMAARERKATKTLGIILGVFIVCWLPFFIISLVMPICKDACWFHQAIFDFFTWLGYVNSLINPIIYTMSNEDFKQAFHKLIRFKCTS

SMILES | EC50 ("5-HT1 -like" receptor) [µM] | Toxicity (cynomolgus monkeys) | Toxicity (dog) | Toxicity (Beagle dogs)
CN(C)CCc1c[nH]c2ccc(C[C@H]3COC(=O)N3)cc12 [2/3, (S)-N,N-dimethyl-2-[5-(2-oxo-1,3-oxazolidin-4-ylmethyl)-1H-indol-3-yl]ethylamine 0.9 isopropanolate 0.5 hydrate] | 0.1 | No evidence of toxicity | No evidence of toxicity | No evidence of toxicity
CN1CCC(c2c[nH]c3ccc(CC4COC(=O)N4)cc23)CC1 (racemic) [4/5, (±)-3-(1-methyl-4-piperidyl)-5-(2-oxo-1,3-oxazolidin-4-yl-methyl)-1H-indole] | 0.501 | – | – | –
